PubChem BioAssay AID330 (DTP/NCI, 2004)
Several values for one entry are separate records, joined by “and”; a condition that tells them apart may be missing. Equal values may be shown once. Toxic doses and inconclusive results are not listed. How the source made its calls: active means survival T/C of 150% or more; inactive means T/C below 125% in these data.

Test system: P388 leukemia ip, CD2F1 mice, survival T/C
Assay: NCI In Vivo Anticancer Drug Screen. Data for tumor model P388 Leukemia (intraperitoneal) in CD2F1 (CDF1) mice
Settings: endpoint: median survival time, higher = longer survival
In short: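 Mice carrying the transplanted tumor received test compound or vehicle. Survival was recorded in each group, and the value is the treated-group measurement divided by that of the vehicle-treated control group.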

[1] = dose: 100.0 mg/kg/injection, schedule: Q01DX001 (ip), vehicle: saline with Tween-80
[2] = dose: 200.0 mg/kg/injection, schedule: Q01DX001 (ip), vehicle: saline with Tween-80
[3] = dose: 400.0 mg/kg/injection, schedule: Q01DX001 (ip), vehicle: saline with Tween-80
[4] = dose: 50.0 mg/kg/injection, schedule: Q01DX005 (ip), vehicle: saline with Tween-80
[5] = dose: 100.0 mg/kg/injection, schedule: Q01DX005 (ip), vehicle: saline with Tween-80
[6] = dose: 200.0 mg/kg/injection, schedule: Q01DX005 (ip), vehicle: saline with Tween-80
[7] = dose: 60.0 mg/kg/injection, schedule: Q01DX005 (ip), vehicle: saline with Tween-80
[8] = dose: 120.0 mg/kg/injection, schedule: Q01DX005 (ip), vehicle: saline with Tween-80
[9] = dose: 12.5 mg/kg/injection, schedule: Q01DX009 (ip), vehicle: saline
[10] = dose: 25.0 mg/kg/injection, schedule: Q01DX009 (ip), vehicle: saline
[11] = dose: 100.0 mg/kg/injection, schedule: Q01DX001 (ip), vehicle: saline
[12] = dose: 50.0 mg/kg/injection, schedule: Q01DX009 (ip), vehicle: saline with Tween-80
[13] = dose: 100.0 mg/kg/injection, schedule: Q01DX009 (ip), vehicle: saline with Tween-80
[14] = dose: 200.0 mg/kg/injection, schedule: Q01DX009 (ip), vehicle: saline with Tween-80

Measured: T/C

CC(=O)OC1CC2C(C)(C)OC(=O)C=CC2(C)C2CCC3(C)C(c4ccoc4)C(=O)C4OC43C12C (configuration not stated)
inactive: dose: 7.5 mg/kg/injection, schedule: Q01DX005 (ip), vehicle: Klucel (hydroxypropylcellulose) (HPC) 88 % of control | dose: 15.0 mg/kg/injection, schedule: Q01DX005 (ip), vehicle: Klucel (hydroxypropylcellulose) (HPC) 93 % of control | dose: 30.0 mg/kg/injection, schedule: Q01DX005 (ip), vehicle: Klucel (hydroxypropylcellulose) (HPC) 95 % of control | dose: 60.0 mg/kg/injection, schedule: Q01DX005 (ip), vehicle: Klucel (hydroxypropylcellulose) (HPC) 93 % of control

C=CCC(CCCCCCCCCCCCC)C(=O)O (configuration not stated)
inactive: [1] 104 % of control | [2] 95 % of control | [3] 91 % of control

CCN1C(N)=NS(=O)(=O)c2ccccc21
inactive: dose: 100.0 mg/kg/injection, schedule: Q04DX002 (ip), vehicle: saline with Tween-80 104 % of control | dose: 200.0 mg/kg/injection, schedule: Q04DX002 (ip), vehicle: saline with Tween-80 104 % of control | dose: 400.0 mg/kg/injection, schedule: Q04DX002 (ip), vehicle: saline with Tween-80 106 % of control

c1ccc2c(-c3nc4ccccc4c4ccccc34)cccc2c1
inactive: [4] 108 % of control | [5] 108 % of control | [6] 95 % of control

Cn1c(=S)sc2nc3ccccc3n2c1=S
inactive: dose: 30.0 mg/kg/injection, schedule: Q01DX005 (ip), vehicle: saline with Tween-80 117 % of control | [7] 121 % of control | [8] 108 % of control

CN1CC2CN(C)CC(C1)C2(O)c1ccccc1 (configuration not stated)
inactive: [9] 97 % of control | [10] 98 % of control

CC1(C)OC2OCC(N=[N+]=[N-])C(O)C2O1 (configuration not stated)
inactive: [4] 113 % of control | [5] 101 % of control | [6] 92 % of control

Cc1cc[n+](CCC(N)=O)cc1
inactive: dose: 100.0 mg/kg/injection, schedule: Q04DX003 (ip), vehicle: saline 100 % of control | dose: 200.0 mg/kg/injection, schedule: Q04DX003 (ip), vehicle: saline 100 % of control

CC1=C(O)COc2cc(C)ccc21
inactive: [11] 102 % of control | dose: 200.0 mg/kg/injection, schedule: Q01DX001 (ip), vehicle: saline 100 % of control | dose: 400.0 mg/kg/injection, schedule: Q01DX001 (ip), vehicle: saline 100 % of control

CCC[CH2][Sn]([CH2]CCC)([S]C(C)=O)[S]C(C)=O
inactive: dose: 12.5 mg/kg/injection, schedule: Q01DX001 (ip), vehicle: Klucel (hydroxypropylcellulose) (HPC) 113 % of control | dose: 25.0 mg/kg/injection, schedule: Q01DX001 (ip), vehicle: Klucel (hydroxypropylcellulose) (HPC) 105 % of control | dose: 50.0 mg/kg/injection, schedule: Q01DX001 (ip), vehicle: Klucel (hydroxypropylcellulose) (HPC) 114 % of control

NCc1cccn1OCc1ccccc1
inactive: [7] 100 % of control | [8] 106 % of control | dose: 240.0 mg/kg/injection, schedule: Q01DX005 (ip), vehicle: saline with Tween-80 104 % of control

C[N+](C)(C)CCC[n+]1ccc(CCn2ccc3ccccc32)cc1
inactive: dose: 25.0 mg/kg/injection, schedule: Q01DX001 (ip), vehicle: saline 93 % of control | dose: 50.0 mg/kg/injection, schedule: Q01DX001 (ip), vehicle: saline 92 % of control | [11] 102 % of control

C[N+]1(C)CCOC(O)(c2ccccc2)C1 (configuration not stated)
inactive: dose: 6.25 mg/kg/injection, schedule: Q01DX009 (ip), vehicle: saline 104 % of control | [9] 98 % of control | [10] 100 % of control

C[C@@H]1C[C@@]2(C)[C@@H](CC[C@@H]3[C@@H]2CC[C@]2(C)[C@@H](O)CC[C@@H]32)CC1=O
inactive: dose: 100.0 mg/kg/injection, schedule: Q04DX003 (ip), vehicle: Klucel (hydroxypropylcellulose) (HPC) 100 % of control | dose: 200.0 mg/kg/injection, schedule: Q04DX003 (ip), vehicle: Klucel (hydroxypropylcellulose) (HPC) 100 % of control

CSC(=S)N/N=C/c1nccc2ccccc12
inactive: [1] 112 % of control | [2] 108 % of control | [3] 116 % of control

CCOC(=S)NS(=O)(=O)c1ccccc1
inactive: dose: 6.25 mg/kg/injection, schedule: Q01DX009 (ip), vehicle: saline with Tween-80 107 % of control | dose: 12.5 mg/kg/injection, schedule: Q01DX009 (ip), vehicle: saline with Tween-80 102 % of control | dose: 25.0 mg/kg/injection, schedule: Q01DX009 (ip), vehicle: saline with Tween-80 109 % of control | [12] 116 % of control

CS/C(C#N)=C(\C#N)SC
inactive: [4] 115 % of control | [5] 113 % of control

Cc1c(-c2ccccc2)n(O)c(-c2ccc([N+](=O)[O-])cc2)[n+]1[O-]
inactive: [12] 99 % of control | [13] 94 % of control | [14] 94 % of control

OC(CCl)Cn1nnc2c3ccccc3ccc21 (configuration not stated)
inactive: dose: 25.0 mg/kg/injection, schedule: Q01DX005 (ip), vehicle: saline with Tween-80 101 % of control | [4] 101 % of control | [5] 101 % of control | dose: 100.0 mg/kg/injection, schedule: Q04DX003 (ip), vehicle: saline with Tween-80 99 % of control | dose: 200.0 mg/kg/injection, schedule: Q04DX003 (ip), vehicle: saline with Tween-80 94 % of control

O=C(O)c1c(Cl)c(Cl)c(Cl)c(Cl)c1C(=O)OCC1CCCO1 (configuration not stated)
inactive: [12] 90 % of control | [13] 106 % of control | [14] 101 % of control

CC(Cl)S(N)(=O)=O (configuration not stated)
inactive: dose: 50.0 mg/kg/injection, schedule: Q01DX005 (ip), vehicle: saline 105 % of control | dose: 100.0 mg/kg/injection, schedule: Q01DX005 (ip), vehicle: saline 98 % of control | dose: 200.0 mg/kg/injection, schedule: Q01DX005 (ip), vehicle: saline 105 % of control

NC(/N=C/c1cc(Cl)cc(Cl)c1O)=N\S(=O)(=O)c1ccc(N=Cc2cc(Cl)cc(Cl)c2O)cc1
inactive: [12] 98 % of control | [13] 91 % of control | [14] 98 % of control

O=S(=O)(O)c1cc(N=C=S)ccc1/C=C/c1ccc(N=C=S)cc1S(=O)(=O)O
inactive: dose: 25.0 mg/kg/injection, schedule: Q01DX005 (ip), vehicle: saline 108 % of control and 110 % of control

Cc1cc(O)c2c3c(c(=O)oc2c1)CP(=O)(c1ccccc1)CC3 (configuration not stated)
inactive: [1] 94 % of control | [2] 91 % of control | [3] 91 % of control

CCOc1c(N=Nc2ccccc2Cl)c(C)nn1C(=S)SC
inactive: dose: 60.0 mg/kg/injection, schedule: Q01DX005 (ip), vehicle: Klucel + Tween-80 103 % of control | dose: 120.0 mg/kg/injection, schedule: Q01DX005 (ip), vehicle: Klucel + Tween-80 112 % of control | dose: 240.0 mg/kg/injection, schedule: Q01DX005 (ip), vehicle: Klucel + Tween-80 103 % of control

NNC(=O)c1nc2ccccc2s1
inactive: dose: 37.5 mg/kg/injection, schedule: Q04DX003 (ip), vehicle: saline with Tween-80 100 % of control | dose: 75.0 mg/kg/injection, schedule: Q04DX003 (ip), vehicle: saline with Tween-80 100 % of control | dose: 150.0 mg/kg/injection, schedule: Q04DX003 (ip), vehicle: saline with Tween-80 95 % of control

Cn1c(N(CCN2CCOCC2)C(=O)/C=C\c2ccccc2)cc(=O)n(C)c1=O
inactive: [4] 105 % of control | dose: 50.0 mg/kg/injection, schedule: Q01DX005 (ip), vehicle: water 103 % of control | [5] 100 % of control | dose: 100.0 mg/kg/injection, schedule: Q01DX005 (ip), vehicle: water 112 % of control | [6] 97 % of control | dose: 200.0 mg/kg/injection, schedule: Q01DX005 (ip), vehicle: water 109 % of control
